In a melting point compilation (Tetko et al.; mined from patent text by program, amines drawn as free bases though some values may be those of a salt) one finds melting point data, which are given here for 88 molecules.

Turning to `N#Cc1cc(F)c(NC(=O)C(F)(F)F)c(F)c1`, the melting point – broadly, the temperature of the solid-liquid transition – is 134 to 135 °C. In the case of `Nc1nc2c(N)cc(OC(F)(F)F)cc2s1` it was 206 °C; in that of `O=c1c(NCc2cccc(O)c2)c(Nc2ccc(O)c(-c3ccccn3)c2)c1=O`, 271 to 272 °C; in that of `Cc1c(Cc2cccc(C(F)(F)F)c2)oc2cccc(-c3cccc(C(=O)NCCC#N)c3)c12`, 108 to 109 °C.

`O=[N+]([O-])c1cc(C(F)(F)F)ccc1C1(O)CC=NO1` (stereo not drawn) registered a melting point of 122 to 123 °C. In the case of `Cc1ccc(Cn2c(C)cc(C)c(C#N)c2=O)cc1` it was 178 to 181 °C. In the case of `COC=C(C(=O)OC)n1ccc2ccc(-c3csc(-c4ccccc4)n3)cc21` it was 145 to 146 °C; in that of `Cc1[nH]c2ccccc2c1Cc1ccncc1`, 126 to 127 °C. `O=C(/C=C/C=C(c1cccc(C(F)(F)F)c1)c1cccc(C(F)(F)F)c1)NCCCCc1cccnc1` yielded a melting point of 89 to 90 °C. In turn, `CCOc1ccc(C(=O)Nc2ccc(C(C)(C)C#N)cc2)cc1OCC` registered a melting point of 138 to 140 °C.

Consider `COC(=O)c1cn(C(c2ccccc2)(c2ccccc2)c2ccccc2)nn1`, for which the melting point was in the range of 189 to 190 °C. In the case of `Fc1ccc2sc(COc3cccc(CBr)c3)nc2c1` it was 99 to 100 °C; in that of `CNC(=O)COCC(=O)O`, 33 to 33.5 °C; in that of `CCCCCC[C@@H]1C[C@H](c2ccc(OC)cc2)C(=O)O1`, 35 to 36 °C. In the case of `CCOP(=O)(/C=C/c1cn(CCO)nc1OCc1ccc(OCc2nc(-c3ccco3)oc2C)c(OC)c1)OCC` it was 95 to 96 °C; in that of `O=C(O)c1ccc([N+](=O)[O-])c(C(=O)O)c1`, 257 to 258 °C; in that of `O=S(=O)(c1ccc(C(CC2CCOCC2)c2ccc(-c3nnc(CO)s3)[nH]2)cc1)C1CC1` (stereo not drawn), 208 to 209 °C. In the case of `CCCCOC(=O)c1ccc(N2CCN(c3ccc(CC(C)O)cc3)CC2)cc1` (stereo not drawn) it was 85 to 86 °C. In the case of `CN(C)c1cccc2c(S(=O)(=O)Nc3ccc(Cl)nc3)cccc12`, the melting point lay in the range of 145 to 146 °C. With `Cn1ccnc1Sc1ccc(Nc2c(C#N)cnc3cc(-c4ccc(C(=O)N5CCOCC5)cc4)ccc23)cc1Cl` the figure was 98 to 101 °C.

As for `CCOC(=O)C1=C(C)NC(=O)N(C(=O)OCC)C1c1cccc([N+](=O)[O-])c1Cl` (stereo not drawn), the melting point was in the range of 176 to 178 °C. With `CCN(CC)C(=O)Oc1nc(-c2ccccc2)nc2ccccc12` the figure was 54 °C; with `c1ccc(-c2nc3c4ccccc4ccn3n2)cc1`, 157 to 158 °C; with `CC(C)(CO)Nc1ccc2c(c1)C(=O)c1ccccc1C2=O`, 218 to 220 °C. With `NC(=O)NS(=O)(=O)c1ccccc1Cl` the figure was 160 to 163 °C; with `OCC1C(O)C(O)C(O)CN1C=CCc1cccc(OCCOc2cccc(CC=CN3CC(O)C(O)C(O)C3CO)c2)c1` (stereo not drawn), 210 to 213 °C; with `COC(=O)CCCc1cc2nc(Cl)ccc2n1S(=O)(=O)c1cccc2nccnc12`, 71 °C. With `COc1ccc(C(=O)c2ccc3cc(OC)ccc3c2)c(ON=C(C)C)c1` the figure was 117 to 118 °C. Take `COC(=O)c1cccc2c1c(C(C[N+](=O)[O-])C[N+](=O)[O-])cn2C`: the melting point was in the range of 142 to 145 °C. `O=C1c2cccnc2N(c2ccccc2)C(=O)C12CCCCO2` (stereo not drawn) yielded a melting point of 213 to 215 °C. In the case of `O=C(Nc1ccccn1)C1=C(O)c2sc3ccccc3c2S(=O)(=O)N1` it was 240 to 242 °C; in that of `O=C(C(Cl)Cl)N1CCN(c2ccc([N+](=O)[O-])cc2)CC1`, 155 °C; in that of `O=C(O)c1ccc2ccccn2c1=O`, 235 to 240 °C. In the case of `CC(C)(CO)c1cc(OS(C)(=O)=O)ccc1O` it was 122 to 124 °C. With `Cc1cccc(C)c1N1Cc2cnc(Nc3ccccc3)nc2N(c2cccc(CCN)c2)C1=O` the figure was 128 °C; with `NS(=O)(=O)c1ccc(C2CCN(c3ccncc3)CC2)cc1`, 295 °C.

`CC(=O)NC(CCCCCCCCC(NC(C)=O)C1CCCCCCC1)C1CCCCCCC1` (stereo not drawn) displayed a melting point of 144 to 149 °C.

In turn, `CC(C)CC(=O)CNC(=O)c1ccc(Cl)cc1` displayed a melting point of 127 to 129 °C.

`NC(=O)OCC(O)Cn1oc2ccc(Cl)cc2c1=O` (stereo not drawn) yielded a melting point of 161 to 162 °C.

As to `CCCCOC(=O)CNC(=O)c1ncccc1OC`, the melting point was 60 to 62 °C. With `CCn1c(=O)c2[nH]c(C(F)=Cc3ccccc3)nc2n(CC)c1=O` the figure was more than 280 °C; with `CS(=O)(=O)OCC1(c2ccc(Cl)cc2)CCC1`, 66 to 70 °C. In the case of `COCCc1nc2c(N)nc3c(c2n1CCOCCNS(C)(=O)=O)CCCC3` it was 151 to 153 °C; in that of `CNC(=O)N(O)Cc1ccc(OCc2ccccc2)cc1`, 150 to 153 °C; in that of `O=C(C=Cc1ccc(C(F)(F)F)cc1)N1CCOCC1`, 142 to 144 °C. In the case of `CC(=O)C1CC=C2C(CCC3=Cc4c(cnn4-c4ccc(F)cc4)CC32C)C1C(C)=O` (stereo not drawn) it was 157 to 159 °C; in that of `Cc1cccc(C)c1NC(=O)c1ccc(S(C)=O)cc1` (stereo not drawn), 144 to 146 °C. Consider `COc1c(C(=O)O)sc(C(F)(F)F)c1SCc1ccccc1`, for which the melting point lay within 146 to 147 °C. With `CC(C)OC(=O)Nc1c(C(O)(C(F)(F)F)C(F)(F)F)ccc2ccccc12` the figure was 139 to 141 °C; with `O=P(O)(c1ccc(S(=O)(=O)c2ccccc2)cc1)c1ccc(S(=O)(=O)c2ccccc2)cc1`, 155 to 165 °C. With `Cc1nn(-c2ccccn2)c2ncc(C(=O)c3ccccc3)c(O)c12`, the melting point is 224 to 226 °C.

As to `CCOC(=O)CN(CCN(CCN1CC(=O)OC(=O)C1)CC(=O)O)CC(=O)O`, the melting point fell in the range of 195 to 196 °C. With `CC(=O)Oc1cccc2c1C(=O)c1c(OC(C)=O)cc(C#N)cc1C2=O` the figure was 218 to 220 °C; with `Cn1nc(OCC(=O)c2ccc(F)cc2)c(-c2ccc(F)cc2)c1-c1ccc(S(C)(=O)=O)cc1`, 173 to 176 °C. With `Oc1ccc(O)c(-c2ccc(Cl)cc2Cl)c1` the figure was 82 to 86 °C. With `O=c1c2c(CCc3ccncc3)n[nH]c2c2cccnc2n1-c1ccccc1` the figure was 267 to 269 °C. Regarding `COc1cc2c3c(n(C)c(=O)c2cc1OC)-c1cc2c(cc1C3=CCCCCBr)OCO2`, the melting point lay in the range of 196 to 197 °C. In the case of `Cc1oc(-c2cccc(-c3ccccc3)c2)nc1CCOc1cccc(OC(C)(C)C(=O)O)c1` it was 67 to 71 °C; in that of `N#Cc1cnn2c1N(C(=O)CCl)CC=C2c1cccc(C(F)(F)F)c1`, 179 to 181 °C. `CCOC(=O)c1cc(O)n(C)n1` registered a melting point of 151 to 153 °C. In the case of `COc1ccc(C)cc1NC(=O)Nc1ccc(C2=CCN(C(=O)Nc3ccc(OCC(O)CO)cc3Cl)CC2)cc1` (stereo not drawn) it was 125 to 128 °C. `N#Cc1cc2c(nc1Cl)CCCCC2` showed a melting point of 126 to 127 °C.

Turning to `CCOC(=O)Cc1c(-c2ccccc2)c2cc(CO)c(CO)cc2oc1=O`, the melting point was in the range of 130 to 131 °C. With `Brc1cccc(Nc2ncnc3cc4c(cc23)OC(CN2CCOCC2)CO4)c1` (stereo not drawn) the figure was 229 to 230 °C; with `CC(C)(C)C(=O)Nc1cc2c(O)n(I)c(I)nc-2n1`, 233 °C; with `COCc1c(C(=O)OC(C)C)ncc2c1c1c(OCc3ccccc3)cccc1n2CC(=O)N(C)CCc1ccccc1`, 146 to 147 °C. In the case of `CCC1(CC(=O)O)OCCc2c1[nH]c1ccc(OCc3ccccc3)cc21` (stereo not drawn), the melting point was 163 to 165 °C.

As to `COP(=O)(Cc1ccc2ccc(CP(=O)(OC)OC)cc2c1)OC`, the melting point was 87 to 88 °C. With `CC(=O)OC1CCC2C3C(Sc4ccc(O)cc4)C(=O)c4cc(O)ccc4C3CCC12C` (stereo not drawn) the figure was 150 to 155 °C.

In turn, `CCCCOc1c(CNC(=O)OC(C)(C)C)n(CC2CC2)c(=O)c2ccc(O)cc12` gave a melting point of 164 to 166 °C. With `O=C1c2ccccc2-c2cc(O)c(Cl)c(Cl)c21` the figure was 276 to 284 °C. In the case of `CC(C)(C)OC(=O)NCc1cccc(C2CCNCC2)c1` it was 79 to 84 °C; in that of `Cc1nc(NC(=O)n2ccnc2)sc1-c1ccnc(CC2CC2)n1`, 240 to 243 °C; in that of `CC(=O)O[C@H]1C[C@@H](n2cnc3c(=O)[nH]cnc32)[C@H](O)[C@@H]1O` (racemic), 240 to 242 °C. In the case of `CCN1CCCCC1CNS(=O)(=O)c1ccc(Nc2ccnc3cc(Cl)ccc23)cc1` (stereo not drawn) it was 203 to 205 °C. The molecule `CC(C)(C)NC(=O)N(CCc1ccccc1)CC(O)C(Cc1ccccc1)NC(=O)C(CC(N)=O)NC(=O)c1ccc2ccccc2n1` (stereo not drawn) gave a melting point of 139 to 140 °C. Molecule `C=C(C(=O)c1cc(C)cc(C)c1O)c1ccccc1` had a melting point of 83 to 84 °C. With `BrCc1nc(-c2ccccc2)nc2ccccc12` the figure was 110 °C; with `COc1ccc(S(=O)(=O)n2ccc3ccnc(-c4ccc(C(F)(F)F)cc4)c32)cc1`, 143 to 145 °C. With `O=C1c2cccc3c4c(cc(c23)C(=O)N1O)OCO4` the figure was 303 to 304 °C. `CCOC(=O)C1CSC(COc2ccccc2OC)N1` (stereo not drawn): the melting point amounted to 50 °C. With `O=C(O)c1ccc(-c2ccccc2OC2OC(CO)C(O)C(O)C2O)cc1` (stereo not drawn) the figure was 248 to 249 °C. `Nc1ccc(C=C2NC(=O)NC2=O)cc1` showed a melting point of 300 °C. `CCOC(=O)/C=C/c1cc(-c2ccc(C)cc2)n(-c2ccc(S(N)(=O)=O)cc2)n1`: the melting point lay in the range of 167 to 171 °C. With `Cc1cc(C)nc(NC(=O)NS(=O)(=O)c2ccsc2C(=O)O)n1` the figure was 127 °C; with `CC(C)c1ccc(N(Cc2cnn(Cc3ccc(Cl)s3)c2)C(=O)C2CCCc3c(O)cccc32)cn1` (stereo not drawn), 98 to 101 °C.

On to `CCCCn1ncc(/C=C(\Cc2cc3c(cc2OC)CCO3)C(=O)O)c1-c1ccc(Cl)cc1OCc1c(Cl)cccc1C(=O)O`, for which the melting point is 114 to 116 °C. With `BrCc1ccc(-c2nc3ccccn3n2)cc1` the figure was 196 °C.
